Assay results published in patent US20250025438A1, “Derivative of aspartic acid and use thereof in treatment of metabolic diseases such as hepatic fibrosis and non-alcoholic hepatitis” (SHENZHEN JINGTAI TECHNOLOGY CO., LTD., priority 2021, published 2025).
Counter-ions that a name gives are not always drawn.

What was measured:
[1] = test system: liver fibrosis-related genes; experiment: Semi-activated LX2 cells, qPCR: liver fibrosis-related genes overall; format: cell-based; conditions: 48 hours, Q-PCR, Table 2
Description: (§1) Test compounds were added to the LX-2 cells respectively, and total RNA in the cells was extracted 48 hours later. This experiment was performed strictly in accordance with the instructions of the Total RNA Kit. The steps were as follows (note: this experiment was performed on ice throughout the entire process, and special RNase-free tips were used throughout the entire process): • 1) The 12-well cell culture plate was taken out from the incubator, the cell culture medium was discarded, the cells were washed twice with 1 mL of 1×PBS, and a negative pressure suction device was used to fully remove PBS; • 2) 350 μL of TRK Lysis Buffer mixture/well was prepared as needed (mixture preparation method: 1 mL of TRKLysis Buffer+20 μL of β-mercaptoethanol), vortexed and mixed well. 350 μL was added to each well of the 12-well cell culture plate, and allowed to stand at room temperature for 5 minutes to fully lyse the cells; • 3) 70% ethanol/well was prepared as needed, vortexed and mixed well. 350 μL was added to each well of the 12-well cell culture plate, mixed well by shaking, and transferred to the spin column (spin column+collection tube were assembled); • 4) Centrifugation was performed at 4° C., 12000 g for 60 sec. The waste liquid was discarded after centrifugation, while the spin column was kept; • 5) 500 μL of RNA Wash Buffer I was added, centrifuged at 4° C., 12000 g for 60 sec, the waste liquid was discarded after centrifugation, and the collection column was kept; • 6) 500 μL of RNA Wash Buffer II (confirmed that ethanol had been added) was added, centrifuged at 4° C., 12000 g for 60 sec, the waste liquid was discarded after centrifugation, and the collection column was kept; • 7) step 6) was repeated once again, centrifugation was performed at 4° C., 12000 g for 90 sec, the waste liquid was discarded after centrifugation, and the collection column was kept; • 8) Centrifugation was performed at 4° C., 12000 g for 120 sec to ensure that the spin column was fully dried; • 9) The dried spin column was inserted into a new 1.5 mL EP tube, and 30 μL of DEPC water was added to the membrane in the center of the spin column. It should be careful not to touch the EP tube cover in this step. It was allowed to stand at room temperature for 5 minutes to ensure that the RNA was fully dissolved in DEPC water. Centrifugation was performed at 4° C., 12000 g for 60 sec, and the EP tube was kept; • 10) NanoDrop ultra-micro-volume spectrophotometer was used to detect RNA concentration;
(§2) 5.3 Q-PCR detection of target gene expression: According to the instructions of Power SYBR® Green PCR Master Mix, the specific operations were as follows:
LX2 cells were passaged and plated normally. After adherent growth for 12 hours, 50 µM of the test compound was added. After 48 hours, the cells were collected, total RNA was extracted, and Q-PCR was used to detect the changes in the mRNA expression levels of liver fibrosis-related genes (ACTA2 encoding α-SMA, COL1A1 and COLIA2 encoding collagen I, COL3A1 encoding collagen III, SMAD3 encoding Smad3) and inflammation-related genes (IL1β encoding IL-1β, TNFα encoding TNFα) (for specific methods, see 5. Q-PCR detection of target gene expression as described above). α-SMA was a marker of hepatic stellate cell activation, and collagen I and collagen III were the main components of extracellular matrix deposition.

NS3TP1 = experiment: Regulation of NS3TP1 in semi-activated LX2 cells, qPCR; format: cell-based; conditions: LX-2 cells, 48 hours, Q-PCR, vs control group
Description: as §1
5.2 Reverse transcription of RNA into cDNA: According to the instructions of PrimeScript™ RT reagent Kit (Perfect Real Time), the specific experimental steps were as follows:
as §2
After the reaction was completed, the amplification curve and dissolution curve of Q-PCR were confirmed, and the relative quantification method ([…]) was used to perform data analysis on the experimental results.
LX2 cells were passaged and plated normally. […] After 48 hours, the cells were collected, total RNA was extracted, and the expression of NS3TP1 gene was detected using Q-PCR method.

[2] = test system: carbon tetrachloride-induced liver fibrosis; experiment: Carbon tetrachloride-induced liver fibrosis model in mice, Masson staining; format: in vivo, C57BL/6 wild-type mice; conditions: CCl4 mice
Description: Long-term intraperitoneal injection of carbon tetrachloride (CCl4) induced reversible liver fibrosis, which was often used to screen and evaluate anti-hepatic fibrosis drugs. C57BL/6 wild-type mice were randomly divided into control group, carbon tetrachloride group and treatment group. The treatments were as follows:
Mice in the carbon tetrachloride group: The animals were intraperitoneally injected with carbon tetrachloride in a total amount of 0.5 μL/g, diluted with corn oil to 10 μL/g, 3 times/week. After 4 weeks of modeling, the carbon tetrachloride group was randomly divided into groups, plus the negative control group: • (1) Mice in the negative control group: The animals were intraperitoneally injected with corn oil solution, 10 μL/g, 3 times/week; at the same time, 200 μL of drinking water was administered by gavage. • (2) Mice in the carbon tetrachloride group: The animals were intraperitoneally injected with carbon tetrachloride in a total amount of 0.5 μL/g, diluted with corn oil to 10 μL/g, 3 times/week; 200 μL of normal saline was administered by gavage. • (3) Mice in the aspartic acid group: The animals were intraperitoneally injected with carbon tetrachloride in a total amount of 0.5 μL/g, diluted with corn oil to 10 μL/g, 3 times/week; 30 mg/kg aspartic acid was administered by gavage. • (4) Mice in the treatment group: The animals were intraperitoneally injected with carbon tetrachloride in a total amount of 0.5 μL/g, diluted with corn oil to 10 μL/g, 3 times/week; different doses of the compounds of the present invention were administered by gavage.
The animals were treated for 4 weeks, and blood was collected from the eyeballs 48 hours after the last injection of carbon tetrachloride. About 1 mL of whole blood per animal was collected in an anticoagulant tube, and immediately placed on ice and allowed to stand for 1 hour. Centrifugation was performed at 4° C., 3000 rpm for 15 min. About 0.4 mL of the supernatant was taken and added into an EP tube, in which it should be carefully avoided to pipet the lower layer liquid, and then it was stored in a −80° C. refrigerator.
It should be noted to use new paraffin when renewed; • (5 Embedding: Melted paraffin (60° C.) was added into a small iron trough, the paraffin-soaked tissue was taken and placed therein, the embedding box at the side with label was buckled, and the melted paraffin was added again. It should be noted that air bubbles should be removed during the operation process; • (6 The paraffin-embedded tissue was placed on an ice table of an automatic embedding machine. After the paraffin solidified, it was placed in a −20° C. refrigerator for further cooling.
• (1 The wax block with embedded tissue was placed at the corresponding position of a microtome; • (2 The slice thickness was adjusted to the thickness required for the experiment. Generally, 3 to 4 μm should be used for slicing; • (3 6 to 8 Consecutive tissue sections were gently placed and fully stretched in a 55° C. water bath expander; • (4 The continuous tissue sections were gently separated by tweezers; • (5 A wax section that was completely stretched and had no wrinkles in the tissue was selected, and taken out with an adhesive slide so that the section was attached to the slide;
Masson staining is one of the classic and authoritative staining methods for collagen fiber staining. Collagen fibers appear […].

[3] = 20 mg/kg/d by gavage, 4 weeks, vs untreated group and aspartic acid group (30 mg/kg/d), FIG. 6

SMILES | inhibition of the mRNA expression levels of liver fibrosis-related genes (overall) [1] | Up-regulation of NS3TP1 (NS3TP1; test concentration 10 mM) | collagen deposition in the mouse liver tissue (Masson) [2, 3] | Up-regulation of NS3TP1 (NS3TP1; 200 µM compound) | collagen deposition in the mouse liver tissue (Masson) ([2]; 10 mg/kg/bid, 50 mg/kg/bid, 150 mg/kg/bid, vs untreated group, FIG. 7) | collagen deposition in the mouse liver tissue (Masson) ([2]; 25 mg/kg/d by gavage, 4 weeks, vs untreated group and aspartic acid group (30 mg/kg/d), FIG. 6) | collagen deposition in the mouse liver tissue (Masson) ([2]; 40 mg/kg/d by gavage, 4 weeks, vs untreated group and aspartic acid group (30 mg/kg/d), FIG. 6)
COC(=O)[C@@H](N)CC(=O)O [Compound 4] | stronger effects | B (B represented that the up-regulation was 20~40%) | reduced | – | – | – | –
COC(=O)C[C@H](N)C(=O)O [Compound 6] | stronger effects | – | – | A (A represented that the up-regulation was 40% or above) | decreased | reduced | –
N[C@@H](CCC(=O)O)C(=O)O [Compound 47] | stronger effects | – | reduced | – | – | – | –
COC(=O)C[C@H](N)C(=O)OCOC(=O)[C@@H](N)CC(=O)OC [Compound 54, 4-dimethyl O′1,01-methylene (2S,2'S)-bis (2-aminosuccinate) hydrochloride] | stronger effects | – | – | A (A represented that the up-regulation was 40% or above) | – | – | reduced
